Source: ChEMBL document CHEMBL3430912, “GSK Tres Cantos Anti-Kinetoplastid Screening (TCAKS) Data”

Tests used:
Trypanosoma cruzi [1] = experiment: GSK_TCAKS: pIC50 Trypanosoma cruzi Imaging: Amastigotes/Cell. […] Cells were then washed once with PBS before infection. T. cruzi trypomastigotes, collected at days 5 to 8 after infection from LLC-MK2 parasite infected cultures, were allowed to swim out for 4h at 37C from a centrifuged pellet (2,500 rpm/10 min/room temperature). Trypomastigotes were then collected and counted in a CASY Cell Counter. Trypomastigotes, in supplemented DMEM, were added to H9c2 cultures in a multiplicity of infection of 1 and incubated for 18 h. Cells were washed once with PBS before incubation of the infected H9c2 monolayer with trypsin (Life-Technologies) to detach cells from the flask. Cells were counted in a CASY Cell Counter using a 150 um capillary and their density set at 5 * 10^4 cells per mL in supplemented assay DMEM. Infected H9c2 were dispensed into 384-well poly-lysine coated assay plates at 50uL per well using a Multidrop Combi dispenser. After seeding them, the plates were incubated at 37C, 5% CO2 for 72h. Cultures were then fixed and stained by addition of 50 uL of a solution containing 8% formaldehyde and 4 uM DRAQ5 DNA dye (BioStatus, UK) per well. […] Five images were collected per well for reliable statistical analysis. Automated image analysis was performed with a script developed on Acapella High Content Imaging and Analysis Software (PerkinElmer). Output: number of amastigotes per cell as infection level measurement.; assay type: functional, organism-based, Rattus norvegicus; conditions: H9c2, 4 h
Leishmania donovani [2] = experiment: GSK_TCAKS: pIC50 Leishmania donovani viability assay using fluorescence intensity. Assay plates (1536-well) were prepared by adding 30nL per well of compound. For single shot assay, the final compound concentration was 5uM. […] Briefly, eGFP LdBOB axenic amastigotes were harvested, fixed and counted in a CASY cell counter (Roche-Applied Science). A final concentration of 1.5 * 10^5 cells per well were prepared in amastigote media containing 500 U/mL penicillin/streptomycin (Invitrogen) and 6uL was dispensed to each experimental well using a Multidrop Combi dispenser (Thermo Scientific). 6uL of assay media was dispensed to control columns used as reference for 100% compound response. Following incubation for 72 h at 37C, 5% CO2, 2 uL of resazurin was added to each well at a final concentration of 0.5 mM in phosphate buffered saline (PBS) with IGEPAL (Sigma-Aldrich), 0.05% (v/v).; assay type: functional, organism-based
Trypanosoma cruzi [3] = experiment: GSK_TCAKS: pIC50 Trypanosoma cruzi viability assay using beta-GAL activity. This assay was run at single shot at 5uM compound concentration per well. The biological reagents consisted of NIH-3T3 host cells and trypomastigotes parasitic cells; both cell types were set to a 3.3 * 10^5 cells/mL dilution in assay DMEM by means of a CASY cell counter device using a 60um capillary. 6 uL of the mixture were dispensed per well (about 1 * 10^3 host-cells and 1 * 10^3 parasites) with a Multidrop Combi dispenser. […] In all wells, the percentage of DMSO never exceeded 0.5%. Plates incubated for four days at 37C, 5% CO2. The substrate used for the assay fluorescence intensity (FLINT) readout was resorufin-beta-D-galactopiranoside (Sigma-Aldrich) at 5uM per well. It was diluted in PBS supplemented with the soft detergent Igepal (Fluka).; assay type: functional, organism-based, Mus musculus; conditions: Tulahuen, NIH3T3
Trypanosoma cruzi [4] = experiment: (§1) GSK_TCAKS: pIC50 Trypanosoma cruzi Imaging: Infected Cells. […] Cells were then washed once with PBS before infection. T. cruzi trypomastigotes, collected at days 5 to 8 after infection from LLC-MK2 parasite infected cultures, were allowed to swim out for 4h at 37C from a centrifuged pellet (2,500 rpm/10 min/room temperature). Trypomastigotes were then collected and counted in a CASY Cell Counter. Trypomastigotes, in supplemented DMEM, were added to H9c2 cultures in a multiplicity of infection of 1 and incubated for 18 h. Cells were washed once with PBS before incubation of the infected H9c2 monolayer with trypsin (Life-Technologies) to detach cells from the flask. Cells were counted in a CASY Cell Counter using a 150 um capillary and their density set at 5 * 10^4 cells per mL in supplemented assay DMEM. Infected H9c2 were dispensed into 384-well poly-lysine coated assay plates at 50uL per well using a Multidrop Combi dispenser. After seeding them, the plates were incubated at 37C, 5% CO2 for 72h. Cultures were then fixed and stained by addition of 50 uL of a solution containing 8% formaldehyde and 4 uM DRAQ5 DNA dye (BioStatus, UK) per well. […] Five images were collected per well for reliable statistical analysis. Automated image analysis was performed with a script developed on Acapella High Content Imaging and Analysis Software (PerkinElmer). Output: percentage of infected cells per well as a second infection marker.; assay type: functional, organism-based, Rattus norvegicus; conditions: H9c2, 4 h
[5] = system: Trypanosoma brucei brucei; experiment: GSK_TCAKS: pIC50 Trypanosoma brucei viability assay using fluorescence intensity. Assay plates (1536-well) were prepared by dispensing 25nL of compound solution per well using an Echo acoustic dispenser (Labcyte).; assay type: functional, organism-based; conditions: Lister 427, 2 h
Trypanosoma cruzi [6] = experiment: as §1, with “H2C9” for “Trypanosoma cruzi”, “H9c2 Host Cardiomyocytes.” for “Infected Cells.”, “Number” for “percentage”, “H9c2 Host Cardiomyocytes nuclei to determine drug-related cytotoxicity.” for “infected cells per well as a second infection marker.”; assay type: functional, organism-based, Rattus norvegicus; conditions: H9c2, 4 h
Leishmania donovani [7] = experiment: GSK_TCAKS: pIC50 Leishmania donovani Imaging: THP-1 Host Macrophages. Assay plates (384-well) were prepared by adding 250nL of compound to each well. For single shot assay, the final compound concentration was 5 uM. […] Automated image analysis was performed with a script developed on Acapella High Content Imaging and Analysis Software (PerkinElmer). Output: THP-1 cell count were reported for each well.; assay type: functional, organism-based, Homo sapiens
NIH3T3 = experiment: GSK_TCAKS: pIC50 NIH 3T3 cell line viability assay using luminiscence. Tissue culture surface treated assay plates (1536-well) were used. […] The 100% cells survival control was determined exposing the host-cells to a 0.5% DMSO concentration, whereas the 100% toxicity control was achieved by seeding the cells in presence of Amphotericin B at 50uM. Plates were incubated for four days at 37C, 5% CO2. The assay readout was developed by addition of 5uL of CellTiter-Glo Reagent following the manufacturer's instructions. Luminiscence was measured using a ViewLux.; assay type: functional, cell-based; conditions: Mus musculus, NIH3T3, 96 h
Leishmania donovani [8] = experiment: GSK_TCAKS: pIC50 Leishmania donovani Imaging: Amastigotes/Macrophages. Assay plates (384-well) were prepared by adding 250nL of compound to each well. For single shot assay, the final compound concentration was 5 uM. […] Automated image analysis was performed with a script developed on Acapella High Content Imaging and Analysis Software (PerkinElmer). Output: Average number of amastigotes per macrophage cell were reported for each well.; assay type: functional, organism-based, Homo sapiens; conditions: THP-1
Leishmania donovani [9] = experiment: GSK_TCAKS: pIC50 Leishmania donovani Imaging: Infected Macrophages. Assay plates (384-well) were prepared by adding 250nL of compound to each well. For single shot assay, the final compound concentration was 5 uM. […] Automated image analysis was performed with a script developed on Acapella High Content Imaging and Analysis Software (PerkinElmer). Output: Percent of infected macrophage cells were reported for each well.; assay type: functional, organism-based, Homo sapiens; conditions: THP-1
[10] = GSK_TCAKS: pIC50 HepG2 human cell line viability assay using luminiscence. […] Seeding density was checked to ensure that new mono-layers were not more than 50% confluent at the time of harvesting. Cell suspension was added to 500 mL of the same medium at a final density of 1.2 * 10^5 cells/mL. This cell suspension was dispensed (25 uL, 3000 cells per well) into 384-well clear-bottom plates using a Multidrop Combi dispenser. Prior to addition of the cell suspension, the screening compounds (250 nL) were pre-dispensed into the plates with an Echo liquid handler. Plates were incubated for 48 h at 37C, 5% CO2. After incubation, plates equilibrated at room temperature for 30 min before proceeding to develop the luminescent signal. The signal developer, CellTiter-Glo Reagent, was allowed to equilibrate at room temperature for 30 min and added to the plates (25uL per well) using a Multidrop Combi dispenser. Plates were left for 10 min at room temperature for stabilization and then read using a ViewLux.; assay type: toxicity, cell-based
[11] = system: Trypanosoma brucei brucei; experiment: GSK_TCAKS: pIC50 Trypanosoma brucei viability assay using luminiscence. Assay plates (1536-well) were prepared. T. brucei cultures were harvested and counted in a CASY cell counter. A parasite suspension was prepared at a final concentration of 5 * 10^4 cells/mL in complete HMI9 medium and 6uL was dispensed to all wells containing compounds using a Multidrop Combi dispenser. 6uL of HMI9 media with 0.4% DMSO were dispensed to control columns. Plates were incubated for 24 h at 37C, 5% CO2 then tempered for 10 min at room temperature. ATP content was quantified by adding 4 uL of CellTiter-Glo Reagent (Promega) according to the manufacturer's instructions. Luminescence was measured using a ViewLux.; assay type: functional, organism-based; conditions: Lister 427, CASY
[12] = biological target: Sterol 14-alpha demethylase (Trypanosoma cruzi (strain CL Brener), UniProt Q7Z1V1); experiment: GSK_TCAKS: pIC50 CYP51 from Trypanosoma cruzi.; assay type: functional
Sterol 14-alpha demethylase, sequence (Q7Z1V1 whole entry): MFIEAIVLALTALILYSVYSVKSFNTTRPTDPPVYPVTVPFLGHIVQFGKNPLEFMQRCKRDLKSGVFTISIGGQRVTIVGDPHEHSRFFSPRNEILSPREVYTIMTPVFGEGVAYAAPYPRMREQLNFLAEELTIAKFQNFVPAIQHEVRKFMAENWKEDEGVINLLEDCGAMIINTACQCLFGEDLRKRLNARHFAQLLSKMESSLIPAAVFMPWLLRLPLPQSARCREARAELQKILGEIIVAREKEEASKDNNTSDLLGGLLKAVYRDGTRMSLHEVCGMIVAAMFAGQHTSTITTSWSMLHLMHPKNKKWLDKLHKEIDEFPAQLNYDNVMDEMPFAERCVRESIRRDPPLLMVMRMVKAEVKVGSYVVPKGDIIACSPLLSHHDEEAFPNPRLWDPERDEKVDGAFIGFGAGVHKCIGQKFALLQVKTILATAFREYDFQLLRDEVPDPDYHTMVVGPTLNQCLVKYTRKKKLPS

SMILES	IC50 (Trypanosoma cruzi [1])	IC50 (Leishmania donovani [2])	IC50 (Trypanosoma cruzi [3])	IC50 (Trypanosoma cruzi [4])	IC50 [5]	IC50 (Trypanosoma cruzi [6])	IC50 (Leishmania donovani [7])	IC50 (NIH3T3)	IC50 (Leishmania donovani [8])	IC50 (Leishmania donovani [9])	IC50 at 48 h [10]	IC50 [11]	IC50 [12]
COc1cc(C(C)C)c(S(C)(=O)=O)cc1C(=O)N1CCN(c2ccccc2Cl)CC1	2 µM	5.01 µM	1.58 µM	2.51 µM	25.1 µM	20 µM	15.8 µM	> 50.1 µM	12.6 µM	15.8 µM	> 100 µM	31.6 µM	> 100 µM
Clc1ccc(Sc2cnccc2N2CCOCC2)cc1	0.1 µM	7.94 µM	0.141 µM	0.126 µM	25.1 µM	> 50.1 µM	> 50.1 µM	> 50.1 µM	10 µM	> 50.1 µM	> 100 µM	> 39.8 µM	0.0316 µM
Clc1ccc(C(CC2CCCCO2)Cn2cncn2)c(Cl)c1 (stereo not given)	1 µM	25.1 µM	0.398 µM	1.26 µM	> 39.8 µM	> 50.1 µM	> 50.1 µM	39.8 µM	> 50.1 µM	> 50.1 µM	> 100 µM	> 39.8 µM	0.251 µM
Cc1[nH]c2ccccc2c(=O)c1Cc1c(C)[nH]c2ccccc2c1=O	1 µM	20 µM	2.51 µM	3.16 µM	> 39.8 µM	> 50.1 µM	> 50.1 µM	> 50.1 µM	> 50.1 µM	> 50.1 µM	> 100 µM	> 39.8 µM	> 100 µM
Cc1cc(N(C)C)nc2ccc(Cc3cnc(N)nc3N)cc12	3.16 µM	> 50.1 µM	1.26 µM	6.31 µM	5.01 µM	> 50.1 µM	39.8 µM	10 µM	39.8 µM	31.6 µM	31.6 µM	5.01 µM	> 100 µM
COc1ccc(C(=O)N2CCC(Nc3cccnc3)C2)c(OC)n1 (stereo not given)	0.794 µM	15.8 µM	0.316 µM	0.794 µM	> 39.8 µM	> 50.1 µM	> 50.1 µM	> 50.1 µM	> 50.1 µM	> 50.1 µM	> 100 µM	> 39.8 µM	0.0631 µM
Cc1c(CNC(=O)c2ccc(Cn3cc(Cl)c([N+](=O)[O-])n3)cc2)cnn1C	0.794 µM	> 50.1 µM	1 µM	1.58 µM	5.01 µM	> 50.1 µM	> 50.1 µM	> 50.1 µM	> 50.1 µM	> 50.1 µM	> 100 µM	10 µM	> 100 µM
CNc1cc(Cn2c(C(=O)c3cc(C)cc(Cl)c3)c(C(C)C)c(=O)[nH]c2=O)ccn1	0.02 µM	> 50.1 µM	0.0398 µM	0.02 µM	25.1 µM	> 50.1 µM	> 50.1 µM	10 µM	12.6 µM	20 µM	> 100 µM	25.1 µM	0.0316 µM
CNc1cc(C)nc(C2CN(C(=O)c3n[nH]c4ccccc34)CCO2)c1 (stereo not given)	0.794 µM	> 50.1 µM	1.26 µM	2.51 µM	20 µM	> 50.1 µM	> 50.1 µM	> 50.1 µM	> 50.1 µM	> 50.1 µM	> 100 µM	> 39.8 µM	> 100 µM
COc1cccc(C(=O)[C@H]2C[C@@H]2CN(Cc2cccnc2)Cc2cccnc2)c1	0.0501 µM	0.158 µM	0.1 µM	0.0631 µM	31.6 µM	> 50.1 µM	39.8 µM	20 µM	7.94 µM	> 50.1 µM	> 100 µM	> 39.8 µM	0.0631 µM
